From patent US5763198A, “Screening assays for compounds” (Sugen, Inc., priority 1994, dated 1998)
Where two headings read alike, the source gives them in different places.

Target: T1, EGF-R (Homo sapiens, UniProt P00533)
T1 construct: another EGFR over-expressing human epidermoid carcinoma cell line, A431 (ATCC CRL 1555); endogenous in cells; host or cells: A431 (ATCC CRL 1555)
Test: Cell-free screening assay for EGF-R kinase activity (EGFR immobilized from A431 lysate)
Assay type: biochemical
Details: read-out: IC50, EGF-R kinase activity in a cell free system
Procedure: This assay provides a method for measuring the effects of test substances on the kinase activity of specific targets in a cell-free system. The target substrate is isolated from cell lysates by immobilization in microtiter plate wells coated with anti-substrate antibody. Following addition of the test substance, ATP and a bivalent cation are added to the wells to initiate the kinase-reaction. Concentrations of ATP can be varied to assess whether a test compound competes for ATP or substrate interaction. […] Phosphorylation of tyrosine residues on the immobilized target is then detected using antiphosphotyrosine antiserum.
The materials and reagents used are described in Section 6.1 with the exception that the cells used to prepare the cell lysate were another EGFR over-expressing human epidermoid carcinoma cell line, A431 (ATCC CRL 1555). Test substances were obtained from LC Service Corp (Woburn, Mass.).
Preparation of the assay plates was performed as described in Section 6.2.1.
Cells (A431) were grown to 80-90% confluency in DMEM (Gibco) plus 10% calf serum then washed twice with PBS. HNTG was added and the dish place on ice for five minutes. […] The cleared lysate can be stored at -80 C until used.
Seven μg of cell lysate was added to each well of a prepared assay plate plus PBS to make a final volume of 150 μl. […] The plate was incubated for 30 minutes, shaking, at room temperature.
The kinase reaction was initiated by the addition of 15 μl of ATP/Mn mix (in 50 mM MnCL2, final concentration of ATP 1 μM, 3 μM or 10 μM) for a total volume of […]. The plate was incubated for 5 minutes at room temperature, shaking, then washed 5 times with TBST. The amount of phosphorylation present was measured as described in Section 6.2.3.

T1 sequence (P00533 25-1210): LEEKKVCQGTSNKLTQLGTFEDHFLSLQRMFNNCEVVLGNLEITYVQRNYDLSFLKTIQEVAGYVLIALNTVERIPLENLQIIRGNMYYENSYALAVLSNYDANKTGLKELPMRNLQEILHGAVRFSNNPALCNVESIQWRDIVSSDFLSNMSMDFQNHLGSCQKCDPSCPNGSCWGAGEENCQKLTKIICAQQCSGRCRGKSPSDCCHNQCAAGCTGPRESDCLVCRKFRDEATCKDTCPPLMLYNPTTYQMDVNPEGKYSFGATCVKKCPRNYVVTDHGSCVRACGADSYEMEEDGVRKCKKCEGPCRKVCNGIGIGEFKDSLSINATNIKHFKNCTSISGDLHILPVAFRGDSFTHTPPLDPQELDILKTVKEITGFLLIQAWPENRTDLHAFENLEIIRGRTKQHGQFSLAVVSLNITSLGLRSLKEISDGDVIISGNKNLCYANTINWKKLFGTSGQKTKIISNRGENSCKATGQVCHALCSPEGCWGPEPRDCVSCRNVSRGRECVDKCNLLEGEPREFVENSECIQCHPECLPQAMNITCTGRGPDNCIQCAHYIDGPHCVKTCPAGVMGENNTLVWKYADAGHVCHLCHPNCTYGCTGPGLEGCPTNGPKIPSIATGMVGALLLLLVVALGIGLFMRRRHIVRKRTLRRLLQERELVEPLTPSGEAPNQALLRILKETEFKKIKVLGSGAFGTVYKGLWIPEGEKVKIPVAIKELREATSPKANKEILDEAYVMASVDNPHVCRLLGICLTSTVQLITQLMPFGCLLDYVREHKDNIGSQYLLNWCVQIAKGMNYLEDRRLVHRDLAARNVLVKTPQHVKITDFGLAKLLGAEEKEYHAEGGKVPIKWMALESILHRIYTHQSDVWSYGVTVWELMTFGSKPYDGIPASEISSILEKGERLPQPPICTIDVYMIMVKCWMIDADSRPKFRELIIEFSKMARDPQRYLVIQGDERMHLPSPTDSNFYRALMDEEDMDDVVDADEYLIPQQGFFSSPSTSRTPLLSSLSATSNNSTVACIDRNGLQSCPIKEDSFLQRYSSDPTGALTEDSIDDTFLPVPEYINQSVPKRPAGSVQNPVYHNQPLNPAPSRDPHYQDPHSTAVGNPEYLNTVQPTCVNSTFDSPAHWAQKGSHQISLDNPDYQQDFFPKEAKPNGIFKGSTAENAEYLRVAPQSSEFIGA

Structure (SMILES)	IC50 (ATP conc. 1 μM) [nM]	IC50 (ATP conc. 3 μM) [nM]	IC50 (ATP conc. 10 μM) [nM]
COC1C=CC=C(C)C(=O)NC2=CC(=O)C=C(C2=O)C(OC)C(C)CC(OC)C(OC)C(C)C=C(C)C1OC(N)=O (stereo not shown) [Herbimycin A]	> 100000	–	–
O=C(O)c1cc(N(Cc2ccccc2O)Cc2cc(O)ccc2O)ccc1O [Lavendustin A]	80	100	55000
